By IC50 is commonly meant the concentration needed to halve the response being measured. Usually inhibition stands for the relative decrease from the control value, in per cent. A low value points to little suppression.

For 13 molecules, IC50 and inhibition results are on record in the Kinase Knowledgebase extract (Sharma et al. 2016).

Sequence of EGFR (rat) (P00533 whole entry, looked up): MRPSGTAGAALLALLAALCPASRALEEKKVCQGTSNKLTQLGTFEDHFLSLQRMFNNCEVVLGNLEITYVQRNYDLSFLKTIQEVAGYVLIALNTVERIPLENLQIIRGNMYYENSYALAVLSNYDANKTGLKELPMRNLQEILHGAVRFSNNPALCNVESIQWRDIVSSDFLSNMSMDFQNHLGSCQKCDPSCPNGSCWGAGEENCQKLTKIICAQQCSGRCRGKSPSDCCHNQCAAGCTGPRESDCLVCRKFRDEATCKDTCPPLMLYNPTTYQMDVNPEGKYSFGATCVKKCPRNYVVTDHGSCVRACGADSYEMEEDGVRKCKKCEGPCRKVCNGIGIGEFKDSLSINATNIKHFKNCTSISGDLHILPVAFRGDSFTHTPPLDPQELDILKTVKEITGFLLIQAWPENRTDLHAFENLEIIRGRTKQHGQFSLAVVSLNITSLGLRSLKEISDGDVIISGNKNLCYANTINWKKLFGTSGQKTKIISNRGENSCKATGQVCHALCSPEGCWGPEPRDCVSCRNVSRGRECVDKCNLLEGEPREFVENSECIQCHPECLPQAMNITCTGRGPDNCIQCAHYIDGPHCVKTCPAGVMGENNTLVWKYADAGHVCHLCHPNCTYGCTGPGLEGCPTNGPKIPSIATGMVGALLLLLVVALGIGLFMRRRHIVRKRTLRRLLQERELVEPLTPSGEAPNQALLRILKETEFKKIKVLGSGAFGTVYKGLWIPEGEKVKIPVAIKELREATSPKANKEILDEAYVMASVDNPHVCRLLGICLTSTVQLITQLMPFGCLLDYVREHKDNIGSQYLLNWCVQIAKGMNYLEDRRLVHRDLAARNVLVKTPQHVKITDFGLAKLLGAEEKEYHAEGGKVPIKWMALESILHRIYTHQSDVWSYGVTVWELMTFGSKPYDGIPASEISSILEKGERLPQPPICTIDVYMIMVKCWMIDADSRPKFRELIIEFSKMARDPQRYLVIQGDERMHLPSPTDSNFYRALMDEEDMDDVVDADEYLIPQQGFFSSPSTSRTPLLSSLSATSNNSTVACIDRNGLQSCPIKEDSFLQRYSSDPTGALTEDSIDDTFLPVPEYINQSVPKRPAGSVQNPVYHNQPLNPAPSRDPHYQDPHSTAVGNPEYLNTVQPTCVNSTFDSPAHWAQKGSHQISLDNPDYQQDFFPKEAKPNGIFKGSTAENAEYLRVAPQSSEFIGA

One experiment concerns the target EGFR (rat) (UniProt P00533). As to conditions: rat-1/her cells.
`COc1c(Br)cc(C=O)c(O)c1Br` yielded an IC50 of 35 µM.
The molecule `O=Cc1cc(Br)cc(Br)c1O` came in with an IC50 of 120 µM.
`COC1=C(Br)C(=O)[C@]2(C=C1Br)CO2` displayed an IC50 of 10 µM.
In turn, `COC1=C(Br)C(=O)[C@](CC#N)(OC(C)=O)C=C1Br` displayed an IC50 of 55 µM.

Staying with this experiment, now noted: rat-1/her cells, dose or concentration not given here.
Consider `COc1c(Br)cc2c(c1Br)OCO2`, for which the inhibition stood at 0%.
Molecule `COc1ccc(C=O)c(O)c1` registered an inhibition of 0%.
Still for that read-out and setting: to `COC1=C(Br)C(=O)[C@@](O)(CC#N)C=C1Br` belongs 0%; to `COC1=C(Br)C(O)(O)[C@@](O)(CC#N)CC1Br` (stereo partly drawn), 0%.
In the case of `COC1=C(Br)[C@H](O)[C@@](O)(CC#N)C=C1Br`, the inhibition was 0%.
Regarding `COc1c(Br)cc(CC#N)c(O)c1Br`, the inhibition amounted to 0%.
Still for that read-out and setting: to `COC1=C(Br)[C@@H](O)[C@@](O)(CC#N)C=C1Br` belongs 0%; to `COc1c(Br)cc(CO)c(O)c1Br`, 0%.
Molecule `COc1c(Br)cc(O)c(O)c1Br` registered an inhibition of 0%.
